# Test system: not given
# Experiment: not given
# Settings: not given
row,Compound,melting point
1,"Cc1nc(Nc2ccc(N3CCOCC3)cc2)sc1C(=O)N[C@H]1CCC[C@@H]1OCc1ccccc1 [Compound 92, 4-methyl-2-(4-morpholin-4-yl-phenylamino)-thiazole-5-carboxylic acid ((1S,2S)-2-benzyloxycyclopent-1-yl) amide]",192.5 to 194.9 °C
2,"COc1ccccc1N(C(C)=O)c1nc(C)c(C(=O)N[C@H]2CCC[C@@H]2OCc2ccccc2)s1 [Compound 129, 2-[acetyl-(2-methoxy-phenyl)-amino]-4-methyl-thiazole-5-carboxylic acid ((1S,2S)-2-benzyloxycyclopent-1-yl) amide]",145.8 to 149 °C
3,"CC[C@@H](NC(=O)c1sc(Nc2ccccc2OC)nc1C)c1ccccc1 [Compound 131, 2-(2-methoxy-phenylamino)-4-methyl-thiazole-5-carboxylic acid ((R)-1-phenyl-propyl)-amide]",57.7 to 59.6 °C
4,"CC[C@H](NC(=O)c1sc(Nc2ccccc2OC)nc1C)c1ccccc1 [Compound 132, 2-(2-methoxy-phenylamino)-4-methyl-thiazole-5-carboxylic acid ((S)-1-phenyl-propyl)-amide]",66.5 to 70.4 °C
5,"COc1cccc(Nc2nc(C)c(C(=O)N[C@H]3CCC[C@@H]3OCc3ccccc3)s2)c1 [Compound 133, 2-(3-methoxy-phenylamino)-4-methyl-thiazole-5-carboxylic acid ((1S,2S)-2-benzyloxycyclopent-1-yl) amide]",152.8 to 155.9 °C
6,"COc1ccccc1Nc1nc(C)c(C(=O)NCc2ccc(C(=O)N(C)C)cc2)s1 [Compound 137, 2-(2-methoxy-phenylamino)-4-methyl-thiazole-5-carboxylic acid 4-dimethylcarbamoyl-benzylamide]",219.1 to 226.7 °C

# The next lines start with the values.
row,melting point,Compound
1,138 to 164.7 °C,Cc1nc(Nc2ccc(Cl)cc2)sc1C(=O)NNc1ccc([N+](=O)[O-])cc1[N+](=O)[O-]
2,131.7 to 140.6 °C,"COc1ccccc1Nc1nc(C)c(C(=O)Cc2ccccc2)s1 [Compound 79, 1-[2-(2-methoxy-phenylamino)-4-methyl-thiazol-5-yl]-2-phenyl-ethanone]"
3,93.4 to 95.8 °C,"Cc1nc(Oc2ccccc2)sc1C(=O)N[C@H]1CCC[C@@H]1OCc1ccccc1 [Compound 80, 4-methyl-2-phenoxy-thiazole-5-carboxylicacid ((1S,2S)-2-benzyloxycyclopent-1-yl)amide]"
4,60.3 to 62.4 °C,"COc1ccccc1Nc1nc(C)c(C(=O)NC(C)c2ccccc2)s1 (centres unmarked) [Compound 130, 2-(2-methoxy-phenylamino)-4-methyl-thiazole-5-carboxylic acid (1-phenyl-ethyl)-amide]"

# Target: T1, human Kv4.3/KChIP2.2 potassium channel (Homo sapiens, UniProt Q9UK17)
# T1 construct: expressed in transfected cells
# T1 sequence (Q9UK17 1-655): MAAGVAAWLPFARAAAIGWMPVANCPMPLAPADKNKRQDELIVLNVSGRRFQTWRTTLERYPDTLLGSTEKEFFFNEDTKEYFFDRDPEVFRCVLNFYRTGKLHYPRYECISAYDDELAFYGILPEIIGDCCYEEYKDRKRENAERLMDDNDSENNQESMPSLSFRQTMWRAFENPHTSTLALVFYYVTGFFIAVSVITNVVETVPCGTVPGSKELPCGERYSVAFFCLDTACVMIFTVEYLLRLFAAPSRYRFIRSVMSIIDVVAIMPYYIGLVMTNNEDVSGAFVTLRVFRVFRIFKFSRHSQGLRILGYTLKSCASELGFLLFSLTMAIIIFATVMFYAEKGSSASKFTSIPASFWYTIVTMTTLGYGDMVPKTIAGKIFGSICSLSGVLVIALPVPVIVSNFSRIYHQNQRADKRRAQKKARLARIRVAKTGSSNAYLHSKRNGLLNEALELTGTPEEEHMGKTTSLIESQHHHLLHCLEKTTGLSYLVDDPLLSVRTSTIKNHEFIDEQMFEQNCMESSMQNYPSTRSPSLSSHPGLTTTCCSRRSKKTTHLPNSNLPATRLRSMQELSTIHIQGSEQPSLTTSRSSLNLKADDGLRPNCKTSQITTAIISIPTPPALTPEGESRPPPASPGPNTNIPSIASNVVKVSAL
# Experiment: Whole cell patch clamp, CHO-K1 cells stably expressing human Kv4.3/KChIP2.2
# Assay type: cell-based
# Settings: CHO-K1; remaining current measured after application of the compound and relative to the blank; read-out: Kv4.3 charge in %
# Method: For this experiment, a recombinant CHO-K1 cell line stably expressing the human Kv4.3/KChIP2.2 potassium channel was used. The cells used for this experiment were kept in continuous culture under standard conditions (37° C., air supplemented with 7% CO2). The CHO-K1 Kv4.3/KChIP2.2 cells were kept in Iscove s modified DMEM (Dulbecco's Modified Eagle's Medium) medium (IMEM) supplemented with 100 U/ml Penicillin, 100 μg/ml Streptomycin, 7% fetal calf serum (FCS), 2.5 μg/ml amphotericin, 400 μg/ml G418, and 400 μg/ml Zeocin™. Cells were passed every 3-4 days after detachment using a Trypsin solution. The quality of the cultured cells was guaranteed by vitality and contamination tests. The culture of the cells was performed as described in protocol D hereunder.
# 10 mM stock solutions of the compounds were prepared in DMSO. Solutions of the compounds were prepared by dilution of stock solution in bath solution. If the required stock solution volume was theoretically below 1 μl, bath solutions with higher compound concentration were used for dilution. The maximal DMSO concentration during experiments was 0.1% (v/v).
# Activity of the human Kv4.3/KChIP2.2 channel was investigated using the patch clamp technique in its whole cell mode. This means that the current needed for clamping the whole cell expressing the K^+-channel protein to a specific potential was measured. Experiments were performed using a patch clamp set-up. Technical equipment needed for manipulation of the cells was placed on a vibration-isolated table and shielded with a Faraday cage to minimize electrical noise. The amplifier and control system were placed in a rack outside the Faraday cage. The system consisted of an EPC9 or EPC10 patch clamp amplifier (HEKA, Lambrecht, Germany), and the perfusion system DADVC8 (ALA Scientific, New York, USA) controlled by the Pulse software package (HEKA, Lambrecht, Germany) installed on a personal computer. The pipettes used for patch clamping were made of borosilicate glass.
# Measurements were performed at room temperature (20-25° C.). In each experiment (i.e. each cell) only one concentration of the compounds was investigated no cumulative dosages were performed. Each cell acted as its own control. […]
# Between voltage pulses the cell was clamped to a holding potential of −80 mV (inside). The test protocols are illustrated in FIG. 1 and Table 4. The test protocol illustrated in FIG. 1a was used to characterize the properties of the Kv4.3/KChIP2.2 channel and to check the quality of the individual patch clamp experiment (voltage control). […] Each test protocol consisted of 4 segments.
# After the whole cell configuration was established a current-voltage curve (IV activation 1; FIG. 1a and Table 4a) was recorded under constant superfusion with bath solution to check for Kv4.3/KChIP2.2 expression and the quality of the individual patch clamp experiment (voltage control). Subsequently, 14 test pulses (series 1; FIG. 1b and Table 4b) were applied at 0.1 Hz under constant superfusion with bath solution. The protocol was initiated by a voltage jump to 100 mV (400 ms) to achieve full inactivation. Then the Kv4.3/KChIP2.2 channels were transferred to the open state by depolarization to +40 mV for 300 milliseconds (activation). Only cells generating current amplitudes between 1 nA and 50 nA were used for the experimental procedure. No or negligible rundown was observed.
# Then, 36 test pulses (series 2) were applied at 0.1 Hz under constant superfusion with the compound dissolved in bath solution. Finally, another current-voltage curve was recorded in the presence of the compounds (IV activation 2).
# Three different types of analysis were used: Inhibition at the peak current, inhibition of translocated charge and inhibition 75 ms after activation at +40 mV (sustained current). The peak current/charge/current at 75 ms was determined using the online analysis tool of the HEKA pulse software package. […]
row,remaining activity at 1 µM,Compound
1,86%,"COc1ccccc1Nc1nc(C)c(C(=O)N[C@H]2CCC[C@@H]2OCc2ccccc2)o1 [Compound 210, 2-(2-methoxy-phenylamino)-4-methyl-oxazole-5-carboxylic acid ((1S,2S)-2-benzyloxycyclopent-1-yl) amide]"

# Same assay, conditions: CHO-K1; remaining peak height measured after application of the compound and relative to the blank; read-out: Kv4.3 peak in %
row,remaining activity at 1 µM,Compound
1,99%,"COc1ccccc1Nc1nc(C)c(C(=O)N[C@H]2CCC[C@@H]2OCc2ccccc2)o1 [Compound 210, 2-(2-methoxy-phenylamino)-4-methyl-oxazole-5-carboxylic acid ((1S,2S)-2-benzyloxycyclopent-1-yl) amide]"

# Same assay, conditions: Kv4.3 mediated current, charge; patch clamp; read-out: Kv4.3 charge IC50
row,Compound,IC50
1,2-(4-bromo-phenylamino)-4-methyl-thiazole-5-carboxylic acid naphth-1-yl methylamide [Compound 27],2.77 µM
2,"COc1cccc([C@@H](C)NC(=O)c2sc(Nc3ccc(Br)cc3)nc2C)c1 [Compound 21, 2-(4-bromo-phenylamino)-4-methyl-thiazole-5-carboxylic acid (R)-1-(3-methoxyphenyl)ethyl amide]",1.26 µM
3,"Cc1nc(Nc2ccc(Br)cc2)sc1C(=O)N[C@H]1CCC[C@@H]1OCc1ccccc1 [Compound 26, 2-(4-bromo-phenylamino)-4-methyl-thiazole-5-carboxylic acid (1S,2S)-2-(benzyloxycyclopent-1-yl) amide]",2.18 µM
4,"CCCN(Cc1ccc([N+](=O)[O-])cc1)C(=O)c1sc(Nc2ccc(Br)cc2)nc1C [Compound 28, 2-(4-bromo-phenylamino)-4-methyl-thiazole-5-carboxylic acid (4-nitro-benzyl)-propyl-amide]",1.06 µM
5,"C[C@@H](NC(=O)c1csc(Nc2ccccc2)n1)c1ccc([N+](=O)[O-])cc1 [Compound 47, 2-phenylamino-thiazole-4-carboxylic acid 1-((R)-4-nitrophenyl-ethyl)-amide]",1.8 µM
6,"COc1ccccc1Nc1nc(C)c(C(=O)N[C@H](C)c2ccc3ccccc3c2)s1 [Compound 53, 2-(2-methoxy-phenylamino)-4-methyl-thiazole-5-carboxylic acid (R)-1-(2-naphtalen-2-yl-ethyl)-amide]",3.95 µM
7,"Cc1nc(Nc2ccc(Br)cc2)sc1C(=O)NCc1ccncc1 [Compound 57, 2-(4-bromo-phenylamino)-4-methyl-thiazole-5-carboxylic acid (pyridin-4-ylmethyl)-amide]",11.2 µM
8,"Cc1nc(Nc2ccc(Br)cc2)sc1C(=O)NCc1ccccn1 [Compound 59, 2-(4-bromo-phenylamino)-4-methyl-thiazole-5-carboxylic acid (pyridin-2-ylmethyl)-amide]",3.06 µM
9,"COc1ccc(CNC(=O)c2sc(Nc3ccc(Br)cc3)nc2C)cc1OC [Compound 61, 2-(4-bromo-phenylamino)-4-methyl-thiazole-5-carboxylic acid 3,4-dimethoxy-benzylamide]",1.53 µM
10,"Cc1nc(Nc2ccc(F)cc2)sc1C(=O)N[C@H]1CCC[C@@H]1OCc1ccccc1 [Compound 67, 2-(4-fluoro-phenylamino)-4-methyl-thiazole-5-carboxylic acid (1S,2S)-2-(benzyloxycyclopent-1-yl) amide]",1.97 µM

# Further lines, results first:
row,IC50,Compound
1,2.13 µM,"Cc1nc(N(C)c2ccc(Br)cc2)sc1C(=O)N[C@@H]1CCC[C@H]1OCc1ccccc1 [Compound 29, 2-(4-bromo-phenyl-methylamino)-4-methyl-thiazole-5-carboxylic acid (1R,2R)-2-(benzyloxycyclopent-1-yl) amide]"
2,2.55 µM,Cc1ccccc1Nc1nc(C)c(C(=O)N[C@@H](C)c2ccc3ccccc3c2)s1 [Compound 32]
3,3.06 µM,"COc1ccc(Cl)cc1Nc1nc(C)c(C(=O)N[C@@H]2CCC[C@H]2OCc2ccccc2)s1 [Compound 35, 2-(5-chloro-2-methoxy-phenylamino)-4-methyl-thiazole-5-carboxylic acid (1R,2R)-2-(benzyloxycyclopent-1-yl) amide]"
4,4.33 µM,"Cc1nc(Nc2ccc(Br)cc2)sc1C(=O)NCc1cccnc1 [Compound 58, 2-(4-bromo-phenylamino)-4-methyl-thiazole-5-carboxylic acid (pyridin-3-ylmethyl)-amide]"
